Target: FAS (Homo sapiens, UniProt P49327)
Test: FAS activity inhibition (Assay #1 residual NADPH/resazurin or Assay #2 CoA/CPM thio-reactive dye)
Format: biochemical
Conditions: measured through one of the two assays, at least one experiment or the average of multiple experiments
Description: FAS activity was measured through one of the two following assays.
Inhibition of FAS activity can be measured based on the detection of residual NADPH substrate after the FAS assay is quenched. This assay is run as a 10 μL endpoint assay in 384-well format, where the reaction contains 20 μM malonyl-CoA, 2 μM acetyl-CoA, 30 μM NADPH and 40 nM FAS in 50 mM sodium phosphate, pH 7.0. The assay is run by sequentially dispensing 5 μl of a malonyl-CoA solution, then enzyme solution Containing the acetyl-CoA, and NADPH) into a black, low volume assay plate (Greiner 784076) pre-dispensed with 100 nL compound solutions in DMSO. The reaction is incubated at ambient temperature for 60 minutes, then quenched with 5 μL, of a developing solution composed of 90 μM resazurin, 0.3 IU/ml diaphorase in 50 mM sodium phosphate, pH 7.0. The developed reaction is read on a Molecular Devices Analyst or Acquest (or equivalent) plate reader using a 530 nm excitation wavelength filter, a 580 nm emission filter, and 561 nm dichroic filter. The test compounds are prepared in neat DMSO at a concentration of 10 mM. For inhibition curves, compounds are diluted using a three fold serial dilution and tested at 11 concentrations (e.g. 25 μM-0.42 nM). Curves are analysed using ActivityBase and XLfit, and results are expressed as pIC50 values.
Inhibition of FAS can also be quantified based on the detection of the CoA products with a thio-reactive coumarin dye. This assay is run as a […] assay in 384-well format, where the reaction contains 20 μM malonyl-CoA, 20 μM acetyl-CoA, 40 μM NADPH and 2 nM FAS in 50 mM sodium phosphate, pH 7.0, and 0.04% Tween-20. The assay is run by adding […] enzyme solution to a black, low volume assay plate (Greiner 784076) pre-dispensed with 100 nl compound solutions in DMSO. After 30 minutes, 5 μL substrate is added, and the reaction incubated at ambient temperature for an additional 60 minutes. The reaction is then quenched with 100 μL of 6M guanidine-HCl containing 50 μM CPM (7-diethylamino-3-(4′-maleimidylphenyl)-4-methylcoumarin CPM; thio-reactive dye), and incubated for 30 minutes. The plate is read on an Envision (PerkinElmer) or equivalent plate reader using a 380 nm excitation wavelength filter, and a 486 nm emission filter. Data fitting and compound preparations are done as described above.

Chain of FAS (P49327 whole entry): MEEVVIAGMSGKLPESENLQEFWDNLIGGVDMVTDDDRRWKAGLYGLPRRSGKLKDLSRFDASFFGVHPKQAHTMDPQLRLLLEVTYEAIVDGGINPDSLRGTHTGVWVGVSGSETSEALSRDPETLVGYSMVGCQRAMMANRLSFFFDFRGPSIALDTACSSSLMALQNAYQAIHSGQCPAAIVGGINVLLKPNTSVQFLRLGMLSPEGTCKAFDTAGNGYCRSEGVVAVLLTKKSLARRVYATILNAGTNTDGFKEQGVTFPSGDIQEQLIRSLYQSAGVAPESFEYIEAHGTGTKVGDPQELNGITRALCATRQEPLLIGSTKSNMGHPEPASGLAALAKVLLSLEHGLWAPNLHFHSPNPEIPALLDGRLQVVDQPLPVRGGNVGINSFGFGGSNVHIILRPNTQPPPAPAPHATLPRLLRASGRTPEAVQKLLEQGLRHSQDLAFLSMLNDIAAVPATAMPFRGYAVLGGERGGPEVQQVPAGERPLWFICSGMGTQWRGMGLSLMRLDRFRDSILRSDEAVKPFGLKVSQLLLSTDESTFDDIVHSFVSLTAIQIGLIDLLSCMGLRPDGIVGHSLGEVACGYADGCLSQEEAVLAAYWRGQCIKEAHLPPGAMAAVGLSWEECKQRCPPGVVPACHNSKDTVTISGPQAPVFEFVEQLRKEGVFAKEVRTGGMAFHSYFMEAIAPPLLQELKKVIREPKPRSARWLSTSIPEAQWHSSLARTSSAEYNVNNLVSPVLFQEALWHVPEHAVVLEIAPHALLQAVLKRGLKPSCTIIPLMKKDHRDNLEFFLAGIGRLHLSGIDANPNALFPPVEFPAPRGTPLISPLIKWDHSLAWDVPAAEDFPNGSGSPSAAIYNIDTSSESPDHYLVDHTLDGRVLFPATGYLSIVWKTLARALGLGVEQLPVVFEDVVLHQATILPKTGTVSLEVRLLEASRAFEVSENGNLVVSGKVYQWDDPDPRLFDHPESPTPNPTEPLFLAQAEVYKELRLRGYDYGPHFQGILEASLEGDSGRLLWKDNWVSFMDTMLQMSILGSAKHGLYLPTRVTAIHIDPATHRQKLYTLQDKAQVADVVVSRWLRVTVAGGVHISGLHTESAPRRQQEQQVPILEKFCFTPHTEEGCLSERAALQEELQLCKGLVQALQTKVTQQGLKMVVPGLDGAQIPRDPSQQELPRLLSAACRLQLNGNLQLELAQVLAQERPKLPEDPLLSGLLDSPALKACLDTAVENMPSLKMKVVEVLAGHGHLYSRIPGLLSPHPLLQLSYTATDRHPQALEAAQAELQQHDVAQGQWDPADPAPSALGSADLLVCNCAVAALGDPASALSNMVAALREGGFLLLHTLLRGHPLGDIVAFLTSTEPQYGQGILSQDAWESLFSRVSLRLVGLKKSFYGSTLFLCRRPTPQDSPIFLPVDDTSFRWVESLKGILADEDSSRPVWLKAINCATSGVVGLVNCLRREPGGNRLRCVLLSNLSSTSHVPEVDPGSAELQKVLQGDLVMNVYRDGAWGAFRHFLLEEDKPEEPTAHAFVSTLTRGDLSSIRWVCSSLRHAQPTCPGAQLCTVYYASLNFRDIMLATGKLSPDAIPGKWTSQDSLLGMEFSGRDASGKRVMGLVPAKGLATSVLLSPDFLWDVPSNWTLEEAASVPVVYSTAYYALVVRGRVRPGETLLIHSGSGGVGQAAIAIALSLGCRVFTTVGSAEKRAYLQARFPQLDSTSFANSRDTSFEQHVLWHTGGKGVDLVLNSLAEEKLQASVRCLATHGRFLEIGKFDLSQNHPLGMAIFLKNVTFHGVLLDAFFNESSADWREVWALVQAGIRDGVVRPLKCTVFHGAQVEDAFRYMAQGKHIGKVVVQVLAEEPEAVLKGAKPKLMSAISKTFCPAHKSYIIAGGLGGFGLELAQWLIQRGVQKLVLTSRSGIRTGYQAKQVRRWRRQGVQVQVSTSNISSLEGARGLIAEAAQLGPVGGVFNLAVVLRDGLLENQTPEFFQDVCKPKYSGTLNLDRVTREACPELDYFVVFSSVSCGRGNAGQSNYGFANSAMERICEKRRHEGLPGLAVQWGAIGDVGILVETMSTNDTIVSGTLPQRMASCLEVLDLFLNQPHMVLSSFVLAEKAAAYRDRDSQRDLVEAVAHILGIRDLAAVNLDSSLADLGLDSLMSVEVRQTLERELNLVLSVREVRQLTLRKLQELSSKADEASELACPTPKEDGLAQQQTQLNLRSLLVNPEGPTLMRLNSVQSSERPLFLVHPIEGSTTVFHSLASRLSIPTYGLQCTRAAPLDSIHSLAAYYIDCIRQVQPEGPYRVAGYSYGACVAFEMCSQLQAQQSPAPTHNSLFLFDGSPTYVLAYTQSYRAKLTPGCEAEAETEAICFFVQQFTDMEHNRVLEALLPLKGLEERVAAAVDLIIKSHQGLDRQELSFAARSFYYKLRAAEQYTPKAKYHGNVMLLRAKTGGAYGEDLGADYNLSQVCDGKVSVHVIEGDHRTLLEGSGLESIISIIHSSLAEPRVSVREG

SMILES | IC50
O=C1COC2(CCN(C(CO)c3ccc(-c4ccc5cccnc5c4)cc3)CC2)CN1C1CC1 (racemic) [Example 22, 4-cyclopropyl-9-(2-hydroxy-1-(4-(quinolin-7-yl)phenyl)ethyl)-1-oxa-4,9-diazaspiro[5.5]undecan-3-one] | 20 nM
NC(=O)C(c1ccc(-c2ccc3cccnc3c2)cc1F)N1CCC2(CC1)CN(C1CC1)C(=O)CO2 (single isomer, unassigned; (+)) [Example 9, (+)-2-(4-cyclopropyl-3-oxo-1-oxa-4,9-diazaspiro[5.5]undec-9-yl)-2-[2-fluoro-4-(7-quinolinyl)phenyl]acetamide] | 3 nM
NC(=O)C(c1c(F)cc(-c2ccc3cccnc3c2)cc1F)N1CCC2(CC1)CN(C1CC1)C(=O)CO2 (single isomer, unassigned; (+)) [Example 73, (+)-2-(4-cyclopropyl-3-oxo-1-oxa-4,9-diazaspiro[5.5]undecan-9-yl)-2-(2,6-difluoro-4-(quinolin-7-yl)phenyl)acetamide] | 1 nM
NC(=O)C(c1ccc(-c2ccc3cccnc3c2)cc1F)N1CCC2(CC1)CN(C1(CO)CC1)C(=O)CO2 (single isomer, unassigned; (-)) [Example 30, (−)-2-(2-fluoro-4-(quinolin-7-yl)phenyl)-2-(4-(1-(hydroxymethyl)cyclopropyl)-3-oxo-1-oxa-4,9-diazaspiro[5.5]undecan-9-yl)acetamide] | 3 nM
COc1c(-c2ccc(C(C(N)=O)N3CCC4(CC3)CN(C3CC3)C(=O)CO4)c(F)c2)ccc2cccnc12 (single isomer, unassigned; (-)) [Example 78, (−)-2-(4-cyclopropyl-3-oxo-1-oxa-4,9-diazaspiro[5.5]undecan-9-yl)-2-(2-fluoro-4-(8-methoxyquinolin-7-yl)phenyl)acetamide] | 4 nM
O=C(O)CC(c1ccc(-c2ccc3cccnc3c2)cc1)N1CCC2(CC1)CN(C1CC1)C(=O)CO2 (centres unmarked) [Example 6, 3-(4-cyclopropyl-3-oxo-1-oxa-4,9-diazaspiro[5.5]undecan-9-yl)-3-(4-(quinolin-7-yl)phenyl)propanoic acid] | 501 nM
CC(c1ccc(-c2ccc3cccnc3c2)cc1)N1CCC2(CC1)CN(C1CC1)C(=O)CO2 (centres unmarked) [Example 13, 4-cyclopropyl-9-(1-(4-(quinolin-7-yl)phenyl)ethyl)-1-oxa-4,9-diazaspiro[5.5]undecan-3-one] | 50 nM
COc1ccc(-c2ccc(C(C(N)=O)N3CCC4(CC3)CN(C3CC3)C(=O)CO4)c(F)c2)cc1 (centres unmarked) [Example 33, 2-(4-cyclopropyl-3-oxo-1-oxa-4,9-diazaspiro[5.5]undecan-9-yl)-2-(3-fluoro-4′-methoxy-[1,1′-biphenyl]-4-yl)acetamide] | 200 nM
